Assay results taken from patent US9593376B2, “Natural killer p30 (NKp30) dysfunction and the biological applications thereof” (INSTITUT GUSTAVE ROUSSY, priority 2008, dated 2017).
Where a name gives a salt, the structure may show the parent alone.

Experiments:
[1] = system: wild-type NCR3 gene splicing (NKp30 isoforms); assay: Modulation of wild-type NCR3 gene splicing by antisense oligonucleotides; conditions: SEQ ID NO: 49-51 used in combination; no experiment described
[2] = system: NKp30 transcriptional profile (PBMC of GIST patients); assay: NKp30 transcriptional profile stability in GIST patients during the course of imatinib mesylate treatment; format: in vivo, human; conditions: GIST therapy, spanning several years in some cases, four patients, FIG. 4
Excerpt: FIG. 4. Representation of NKp30 transcriptional profile intra-individual stability in four GIST patients during the course of treatment
NKP30 transcriptional profile. NKp30 isoform proportions are shown as the ratio of the relative quantities of each isoform and the total quantity of the six isoforms. For each patient, the numbers in brackets represent the time post-treatment in months.
(§1) Total cellular RNA was isolated from PBMC and NK cell lines with the RNeasy kit (Qiagen). First strand cDNA was synthesized from 5 μg of total RNA using SuperScript™ II Reverse Transcriptase and random primers (Promega) according to Invitrogen's instructions.
For the “GIST patients and Healthy Volunteers” cohort, real time quantitative PCR amplifications were conducted using FastStart DNA Master SYBRGreen I Mix according to the manufacturer's instructions, with 0.3 μM primers, 2 mM MgCl2 and cDNAs, in a 20 μl final reaction volume. Thermocycling was performed using a LightCycler (Roche Molecular System) initiated by 10 min incubation at 95° C., followed by 38 cycles (95° C., 1 s; 65° C., 10 s; 72° C., 20 s). NKp30 mRNA expression level was normalized by dividing its relative mRNA amount with the corresponding GAPDH mRNA amount.

[3] = system: alternative splicing of NCR3 gene (NKp30 SHORT, INTER, LONG isoforms) in NK92 cells; assay: Modulation of alternative splicing of NCR3 gene in NK92 cells (RT-PCR of NKp30 isoform proportions); format: cell-based, human; conditions: 2 μM with IL-2 (50 UI/ml), 36 h at 37° C., FIG. 14B
Procedure: (§2) FIG. 14. Modulation of alternative splicing of NCR3 gene with histone deacetylase inhibitors and DNA methyltransferase inhibitors (part A of experimental section)
(§3) NKp30 isoform proportions are shown as the ratio of the sum of WT—(variable Ig-like) and DEL—(constant Ig-like) extracellular domain relative quantities of each isoform (SHORT-, INTER- and LONG-tail isoforms) and the total quantity of the six isoforms.
(B) NK92 cells were seeded (5.10^5 NK/well) in 96 wells plates and incubated with 5-azacitidine (2 μM) (5AZA) and IL-2 (50 Ul/ml) for 36 h at 37° C.
as §1
(§4) Modulation of NCR3 Alternative Splicing by HDAC and Demethylating Agents.
NK92 cells were seeded (5.10^5 NK/well) in 96 wells plates and incubated with 5-azacitidine (2 μM) and IL-2 (50 Ul/ml) for 36 h at 37° C.
(§5) Several approaches modulating alternative splicing may be used to operate a switch from NKp30 INTER^Low/SHORT^High/LONG^High (identified as profile B following the first results obtained in the present study (part A.)) towards NKp30 INTER^High/SHORT^Low/LONG^Low (identified as profile A following the first results obtained in the present study (part A.)). […]

[4] = system: alternative splicing of NCR3 gene (NKp30 SHORT, INTER, LONG isoforms) in YTS cells; assay: Modulation of alternative splicing of NCR3 gene in YTS cells (RT-PCR of NKp30 isoform proportions); format: cell-based, human; conditions: 100 nM, 45 h at 37° C., FIG. 14A
Procedure: as §2, §3
(A) YTS cells were seeded (5.10^5 NK/well) in 96 wells plates and incubated with trichostatine A (100 nM) (TSA) for 45 h at 37° C.
as §1, §4
YTS cells were seeded (5.10^5 NK/well) in 96 wells plates and incubated with trichostatine A (100 nM) for 45 h at 37° C.
as §5

## antisense oligonucleotides corresponding to SEQ ID NO: 49-51: three antisense oligonucleotides used in combination: target polyadenylation signal 1, polyadenylation site 1, and INTER blocking (antisense 1 GGGGCAGATTTATTGGGGTC; antisense 2 CTCATGAGGAGTTAGTGGT; antisense 3 GTGACAGTGGCCTGGTCAGA; listed as DNA, chemistry not given here)
[1]
  Representation of NKp30 INTER, SHORT and LONG isoforms compared to reference or mean values: significant (relative) under-representation of NKp30 INTER isoforms associated with a relative over-representation of NKp30 SHORT and LONG isoforms

## Cc1ccc(NC(=O)c2ccc(CN3CCN(C)CC3)cc2)cc1Nc1nccc(-c2cccnc2)n1 [imatinib mesylate]
[2]
  Modulation of the pattern of NKp30 expression overtime: did not appear to modulate the pattern of NKp30 expression overtime

## Nc1ncn([C@@H]2O[C@H](CO)[C@@H](O)[C@H]2O)c(=O)n1 [5-azacitidine]
[3]
  Proportions of NKp30 INTER, SHORT and LONG isoforms: significant over-representation of INTER isoforms associated with an under-representation of SHORT and LONG isoforms

## CC(/C=C/C(=O)NO)=C\[C@@H](C)C(=O)c1ccc(N(C)C)cc1 [trichostatin A]
[4]
  Proportions of NKp30 INTER, SHORT and LONG isoforms: significant over-representation of INTER isoforms associated with an under-representation of SHORT and LONG isoforms
